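Compound exposure: 48 hours, 5 concentrations, 96-well plates. GI50 marks 50% less growth. TGI marks complete inhibition of growth.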
Key:
Test in all cases: growth of human tumour cells (NCI), 48 h
786-0 renal = system: 786-0 renal
A498 renal = system: A498 renal
A549 NSCLC = system: A549 NSCLC
ACHN renal = system: ACHN renal
CCRF-CEM leukemia = system: CCRF-CEM leukemia
COLO 205 colon = system: COLO 205 colon
DU-145 prostate = system: DU-145 prostate
EKVX NSCLC = system: EKVX NSCLC
HCC-2998 colon = system: HCC-2998 colon
HCT-116 colon = system: HCT-116 colon
HCT-15 colon = system: HCT-15 colon
HL-60(TB) leukemia = system: HL-60(TB) leukemia
HOP-62 NSCLC = system: HOP-62 NSCLC
HOP-92 NSCLC = system: HOP-92 NSCLC
HS 578T breast = system: HS 578T breast
HT29 colon = system: HT29 colon
IGROV1 ovarian = system: IGROV1 ovarian
KM12 colon = system: KM12 colon
LOX IMVI melanoma = system: LOX IMVI melanoma
M14 melanoma = system: M14 melanoma
MALME-3M melanoma = system: MALME-3M melanoma
MCF7 breast = system: MCF7 breast
MDA-MB-231 breast = system: MDA-MB-231 breast
MDA-MB-435 = system: MDA-MB-435
MOLT-4 leukemia = system: MOLT-4 leukemia
NCI-H226 lung = system: NCI-H226 lung
NCI-H23 lung = system: NCI-H23 lung
NCI-H460 lung = system: NCI-H460 lung
NCI-H522 lung = system: NCI-H522 lung
NCI/ADR-RES ovarian = system: NCI/ADR-RES ovarian
OVCAR-3 ovarian = system: OVCAR-3 ovarian
OVCAR-4 ovarian = system: OVCAR-4 ovarian
OVCAR-5 ovarian = system: OVCAR-5 ovarian
OVCAR-8 ovarian = system: OVCAR-8 ovarian
PC-3 prostate = system: PC-3 prostate
RXF 393 renal = system: RXF 393 renal
SF-268 CNS = system: SF-268 CNS
SF-295 CNS = system: SF-295 CNS
SF-539 CNS = system: SF-539 CNS
SK-MEL-28 melanoma = system: SK-MEL-28 melanoma
SK-MEL-5 melanoma = system: SK-MEL-5 melanoma
SK-OV-3 ovarian = system: SK-OV-3 ovarian
SN12C renal = system: SN12C renal
SNB-19 CNS = system: SNB-19 CNS
SNB-75 CNS = system: SNB-75 CNS
SR leukemia = system: SR leukemia
SW-620 colon = system: SW-620 colon
T-47D breast = system: T-47D breast
TK-10 renal = system: TK-10 renal
UACC-257 melanoma = system: UACC-257 melanoma
UACC-62 melanoma = system: UACC-62 melanoma
UO-31 renal = system: UO-31 renal

`OCCCc1n(Cc2ccc3ccccc3c2)c2ccccc2[n+]1Cc1ccc2ccccc2c1` was tested, and the GI50 (786-0 renal) was 2090 nM, the TGI (786-0 renal) was 4740 nM and the GI50 (A498 renal) was 1380 nM. For the same molecule, the TGI (A498 renal) was 5180 nM, the GI50 (A549 NSCLC) was 6970 nM and the TGI (A549 NSCLC) was 31400 nM. For the same molecule, the GI50 (ACHN renal) was 12500 nM, the TGI (ACHN renal) was 28000 nM and the GI50 (CCRF-CEM leukemia) was 1990 nM. For the same molecule, the TGI (CCRF-CEM leukemia) was 5650 nM, the GI50 (COLO 205 colon) was 838 nM and the TGI (COLO 205 colon) was 2530 nM. It also gave a GI50 (DU-145 prostate) of 3520 nM, a TGI (DU-145 prostate) of 14200 nM and a GI50 (EKVX NSCLC) of 3680 nM. For the same molecule, the TGI (EKVX NSCLC) was 19400 nM, the GI50 (HCC-2998 colon) was 1650 nM and the TGI (HCC-2998 colon) was 3250 nM. It also gave a GI50 (HCT-116 colon) of 1050 nM, a TGI (HCT-116 colon) of 2590 nM and a GI50 (HCT-15 colon) of 11200 nM. The TGI (HCT-15 colon) was 24800 nM, the GI50 (HL-60(TB) leukemia) was 507 nM and the TGI (HL-60(TB) leukemia) was 2360 nM. The GI50 (HOP-62 NSCLC) was 2320 nM, the TGI (HOP-62 NSCLC) was 11600 nM and the GI50 (HOP-92 NSCLC) was 567 nM. The TGI (HOP-92 NSCLC) was 3100 nM, the GI50 (HS 578T breast) was 2150 nM and the TGI (HS 578T breast) was 7960 nM. For the same molecule, the GI50 (HT29 colon) was 1020 nM, the TGI (HT29 colon) was 4170 nM and the GI50 (IGROV1 ovarian) was 800 nM. The TGI (IGROV1 ovarian) was 2480 nM, the GI50 (KM12 colon) was 1400 nM and the TGI (KM12 colon) was 3080 nM. It also gave a GI50 (LOX IMVI melanoma) of 1340 nM, a TGI (LOX IMVI melanoma) of 2680 nM and a GI50 (M14 melanoma) of 1330 nM. The TGI (M14 melanoma) was 3560 nM, the GI50 (MALME-3M melanoma) was 1280 nM and the TGI (MALME-3M melanoma) was 2820 nM. The GI50 (MCF7 breast) was 1700 nM, the TGI (MCF7 breast) was 3670 nM and the GI50 (MDA-MB-231 breast) was 1320 nM. The TGI (MDA-MB-231 breast) was 2780 nM, the GI50 (MDA-MB-435) was 1220 nM and the TGI (MDA-MB-435) was 2710 nM. It also gave a GI50 (MOLT-4 leukemia) of 1880 nM, a TGI (MOLT-4 leukemia) of 5240 nM and a GI50 (NCI-H226 lung) of 2230 nM. For the same molecule, the TGI (NCI-H226 lung) was 10500 nM, the GI50 (NCI-H23 lung) was 1650 nM and the TGI (NCI-H23 lung) was 8170 nM. For the same molecule, the GI50 (NCI-H460 lung) was 2430 nM, the TGI (NCI-H460 lung) was 9570 nM and the GI50 (NCI-H522 lung) was 1050 nM. The TGI (NCI-H522 lung) was 3950 nM, the GI50 (NCI/ADR-RES ovarian) was 27000 nM and the TGI (NCI/ADR-RES ovarian) was > 100000 nM. For the same molecule, the GI50 (OVCAR-3 ovarian) was 1070 nM, the TGI (OVCAR-3 ovarian) was 2810 nM and the GI50 (OVCAR-4 ovarian) was 670 nM. The TGI (OVCAR-4 ovarian) was 6730 nM, the GI50 (OVCAR-5 ovarian) was 1980 nM and the TGI (OVCAR-5 ovarian) was 7170 nM. The GI50 (OVCAR-8 ovarian) was 2670 nM, the TGI (OVCAR-8 ovarian) was 14000 nM and the GI50 (PC-3 prostate) was 1740 nM. It also gave a TGI (PC-3 prostate) of 11100 nM, a GI50 (RXF 393 renal) of 1500 nM and a TGI (RXF 393 renal) of 3830 nM. The GI50 (SF-268 CNS) was 1810 nM, the TGI (SF-268 CNS) was 4560 nM and the GI50 (SF-295 CNS) was 2640 nM. It also gave a TGI (SF-295 CNS) of 11300 nM, a GI50 (SF-539 CNS) of 2010 nM and a TGI (SF-539 CNS) of 6510 nM. The GI50 (SK-MEL-28 melanoma) was 1220 nM, the TGI (SK-MEL-28 melanoma) was 2880 nM and the GI50 (SK-MEL-5 melanoma) was 1110 nM. It also gave a TGI (SK-MEL-5 melanoma) of 2320 nM, a GI50 (SK-OV-3 ovarian) of 2870 nM and a TGI (SK-OV-3 ovarian) of 13600 nM. It also gave a GI50 (SN12C renal) of 1850 nM, a TGI (SN12C renal) of 10200 nM and a GI50 (SNB-19 CNS) of 1270 nM. The TGI (SNB-19 CNS) was 2850 nM, the GI50 (SNB-75 CNS) was 1590 nM and the TGI (SNB-75 CNS) was 4970 nM. The GI50 (SR leukemia) was 1160 nM, the TGI (SR leukemia) was 3780 nM and the GI50 (SW-620 colon) was 1460 nM. For the same molecule, the TGI (SW-620 colon) was 3220 nM, the GI50 (T-47D breast) was 615 nM and the TGI (T-47D breast) was 6820 nM. For the same molecule, the GI50 (TK-10 renal) was 1950 nM, the TGI (TK-10 renal) was 4740 nM and the GI50 (UACC-257 melanoma) was 1180 nM. For the same molecule, the TGI (UACC-257 melanoma) was 3250 nM, the GI50 (UACC-62 melanoma) was 666 nM and the TGI (UACC-62 melanoma) was 2090 nM. It also gave a GI50 (UO-31 renal) of 10400 nM and a TGI (UO-31 renal) of 25300 nM.
